Data set [1] relates to HBV. Kind of data set: Anti-HBV activity in HepG2.2.15 stable transfected cell line (HBV DNA from secreted virions, realtime PCR). The format is cell-based, Hepatitis B virus. Conditions: HepG2.2.15 cells, 6 days of treatment, HBV DNA from secreted virions by realtime PCR.
Data set [2] has as its system HBV. Kind of data set: Anti-HBV activity in HepG2.117 inducible HBV producing cell line (intracellular HBV DNA, realtime PCR). The format is cell-based, Hepatitis B virus. The settings on record: HepG2.117 cells (Tet-off), 3 days of treatment, intracellular HBV DNA by realtime PCR.
Data set [3] is described as follows: Cytotoxicity in HepG2 cells (Resazurin assay). The format is cell-based. Conditions: human, incubated 4 days, viability by Resazurin assay. For orientation: Alamar Blue is a resazurin reagent that responds to reducing activity.
Setting [4] is: Hepatitis B virus, HepG2.2.15, 144 h.
Setting [5] is: Hepatitis B virus, HepG2.117, 72 h.

The term EC50 denotes the concentration that produces a half-maximal response. Read a high EC50 as a less potent agent. In general, CC50 refers to the concentration giving 50% cytotoxicity.

On to `O=C(NC1(C(F)(F)F)CC1)C(=O)N1CC[C@H](C(=O)Nc2ccc(F)c(Cl)c2)C1` [Compound 25, (3S)-N-(3-chloro-4-fluoro-phenyl)-1-[2-oxo-2-[[1-(trifluoromethyl)cyclopropyl]amino]acetyl]pyrrolidine-3-carboxamide], for which the EC50 in the data set with HBV [1] (setting [4]) came out at 42 nM; in the data set on HBV [2] (setting [5]), 31 nM. In data set [3], the CC50 at 4 days was above 25000 nM.

With `CC(C)(C)NC(=O)C(=O)N1CC[C@H](C(=O)Nc2ccc(F)c(C#N)c2)C1` [Compound 20, (3S)-1-[2-(tert-butylamino)-2-oxo-acetyl]-N-(3-cyano-4-fluorophenyl)-pyrrolidine-3-carboxamide], the half-maximal effective concentration (EC50) was 289 nM in the data set on HBV [1] (setting [4]) and 645 nM in the data set on HBV [2] (setting [5]). In data set [3], this compound yielded a CC50 at 4 days above 25000 nM.

As for `Cc1cc(NC(=O)[C@H]2CCN(C(=O)C(=O)N[C@H](C)CO)C2)ccc1F` [Compound 6, (S)-N-(4-fluoro-3-methylphenyl)-1-(2-(((R)-1-hydroxypropan-2-yl)amino)-2-oxoacetyl)pyrrolidine-3-carboxamide], the concentration giving a half-maximal response (EC50) in the data set with HBV [1] (setting [4]) was 301 nM; with HBV [2] (setting [5]), 257 nM. In addition, the CC50 at 4 days in data set [3] was above 25000 nM.

As for `C[C@H](NC(=O)C(=O)N1CC[C@H](C(=O)Nc2ccc(F)c(Cl)c2)C1)C(F)(F)F` [Compound 26, (3S)-N-(3-chloro-4-fluoro-phenyl)-1-[2-oxo-2-[[(1S)-2,2,2-trifluoro-1-methyl-ethyl]amino]acetyl]pyrrolidine-3-carboxamide], the values for the EC50 in the data set on HBV [1] (setting [4]) and in the data set on HBV [2] (setting [5]) were 168 nM and 122 nM, respectively. This compound also gave a CC50 at 4 days in data set [3] above 25000 nM.

`C[C@H](NC(=O)C(=O)N1CC[C@H](C(=O)Nc2ccc(F)c(C(F)F)c2)C1)C(F)(F)F` [Compound 30, (3S)-N-[3-(difluoromethyl)-4-fluoro-phenyl]-1-[2-oxo-2-[[(1 S)-2,2,2-trifluoro-1-methyl-ethyl]amino]acetyl]pyrrolidine-3-carboxamide]: the EC50 in the data set with HBV [1] (setting [4]) stood at 161 nM; in the data set on HBV [2] (setting [5]), 125 nM. The same compound registered a CC50 at 4 days in data set [3] above 25000 nM.

For `CC(C)NC(=O)C(=O)N1CCC(C(=O)Nc2ccc(F)c(Cl)c2F)[C@@H]1C` (stereo partly drawn) [Compound 28, (2S)-N-(3-chloro-2,4-difluoro-phenyl)-1-[2-(isopropylamino)-2-oxo-acetyl]-2-methyl-pyrrolidine-3-carboxamide], the EC50 with HBV [1] (setting [4]) is 50 nM; with HBV [2] (setting [5]), 83 nM. This compound displayed a CC50 at 4 days in data set [3] above 25000 nM.

In the case of `Cc1cc(NC(=O)[C@H]2CCN(C(=O)C(=O)NC3(C)COC3)[C@H]2C)ccc1F` [Compound 10, (2S,3S)-N-(4-Fluoro-3-methylphenyl)-2-methyl-1-{[(3-methyloxetan-3-yl)-amino](oxo)acetyl}pyrrolidine-3-carboxamide], the EC50 in the data set on HBV [1] (setting [4]) amounted to 8 nM; in the data set on HBV [2] (setting [5]) it was 9 nM. In addition, in data set [3], the CC50 at 4 days was above 25000 nM.

Regarding `C[C@@H](NC(=O)C(=O)N1CC[C@H](C(=O)Nc2ccc(F)c(C#N)c2)C1)C(F)(F)F` [Compound 22, (3S)-N-(3-cyano-4-fluoro-phenyl)-1-[2-oxo-2-[[(1R)-2,2,2-trifluoro-1-methyl-ethyl]amino]acetyl]pyrrolidine-3-carboxamide], the EC50 in the data set on HBV [1] (setting [4]) turned out to be 110 nM; with HBV [2] (setting [5]), 128 nM. Also, the CC50 at 4 days in data set [3] was above 25000 nM.

Consider `C[C@@H](NC(=O)C(=O)N1CC[C@H](C(=O)Nc2ccc(F)c(Cl)c2F)C1)C(F)(F)F` [Compound 21, (3S)-N-(3-chloro-2,4-difluoro-phenyl)-1-[2-oxo-2-[[(1R)-2,2,2-trifluoro-1-methyl-ethyl]amino]acetyl]pyrrolidine-3-carboxamide], for which the EC50 in the data set with HBV [1] (setting [4]) and in the data set with HBV [2] (setting [5]) was 63 nM each time. In addition, in data set [3], the CC50 at 4 days is above 25000 nM.

For `CC1C(C(=O)Nc2ccc(F)c(Cl)c2F)CCCN1C(=O)C(=O)N[C@H](C)C(F)(F)F` (single isomer, unassigned) [Compound 35a], the EC50 with HBV [1] and with HBV [2] was above 1000 nM in each case. The compound further yielded a half-maximal cytotoxic concentration (CC50) at 4 days in data set [3] above 25000 nM.

Regarding `C[C@@H](NC(=O)C(=O)N1CC[C@H](C(=O)Nc2cc(F)c(F)c(Cl)c2)C1)C(F)(F)F` [Compound 11, (S)-N-(3-chloro-4,5-difluorophenyl)-1-(2-oxo-2-(((R)-1,1,1-trifluoropropan-2-yl)amino)acetyl)pyrrolidine-3-carboxamide], the values for the EC50 in the data set on HBV [1] (setting [4]) and in the data set on HBV [2] (setting [5]) were 32 nM and 17 nM, respectively. This compound displayed a CC50 at 4 days in data set [3] above 25000 nM.

For `C[C@@H](NC(=O)C(=O)N1CC[C@H](C(=O)Nc2cc(F)c(F)c(Br)c2)C1)C(F)(F)F` [Compound 1, (S)-N-(3-bromo-4,5-difluorophenyl)-1-(2-oxo-2-(((R)-1,1,1-trifluoropropan-2-yl)amino)acetyl)pyrrolidine-3-carboxamide], the EC50 worked out at 20 nM in the data set with HBV [1] (setting [4]) and 18 nM in the data set on HBV [2] (setting [5]). The compound further had a CC50 at 4 days in data set [3] above 25000 nM.

For the compound `Cc1cc(NC(=O)C2CC(C)N(C(=O)C(=O)NC3(C)COC3)C2)ccc1F` (single isomer, unassigned) [Compound 17a, N-(4-fluoro-3-methylphenyl)-5-methyl-1-(2-((3-methyloxetan-3-yl)amino)-2-oxoacetyl)pyrrolidine-3-carboxamide], the EC50 in the data set with HBV [1] and with HBV [2] was above 1000 nM each time. This compound gave a CC50 at 4 days in data set [3] above 25000 nM.

Turning to `CC(C)(NC(=O)C(=O)N1CC[C@H](C(=O)Nc2cc(F)c(F)c(Cl)c2)C1)C(F)(F)F` [Compound 16, (S)-N-(3-chloro-4,5-difluorophenyl)-1-(2-oxo-2-((1,1,1-trifluoro-2-methylpropan-2-yl)amino)acetyl)pyrrolidine-3-carboxamide], the EC50 in the data set on HBV [1] (setting [4]) turned out to be 58 nM; in the data set on HBV [2] (setting [5]), 35 nM. The same compound registered a 50% cytotoxic concentration (CC50) at 4 days in data set [3] above 25000 nM.

For `C[C@@H](NC(=O)C(=O)N1CC[C@H](C(=O)Nc2ccc(F)c(C(F)(F)F)c2)C1)C(F)(F)F` [Compound 14, (S)-N-(4-fluoro-3-(trifluoromethyl)phenyl)-1-(2-oxo-2-(((R)-1,1,1-trifluoropropan-2-yl)amino)acetyl)pyrrolidine-3-carboxamide], the EC50 with HBV [1] (setting [4]) is 64 nM; in the data set with HBV [2] (setting [5]), 45 nM. In data set [3], this compound gave a CC50 at 4 days above 25000 nM.

In turn, `C[C@H]1[C@H](C(=O)Nc2cc(F)c(F)c(Cl)c2)CCN1C(=O)C(=O)N[C@H](C)C(F)(F)F` [Compound 33a, (2S,3R)—N-(3-chloro-4,5-difluoro-phenyl)-2-methyl-1-[2-oxo-2-[[(1R)-2,2,2-trifluoro-1-methyl-ethyl]amino]acetyl]pyrrolidine-3-carboxamide] yielded an EC50 with HBV [2] (setting [5]) above 500 nM. The CC50 at 4 days in data set [3] was above 25000 nM.

On to `Cc1cc(NC(=O)[C@H]2CCN(C(=O)C(=O)NC(C)C)C2)ccc1F` [Compound 4, (3S)-N-(4-Fluoro-3-methylphenyl)-1-{[(1-methylethyl)amino] (oxo)acetyl}-pyrrolidine-3-carboxamide], for which the values for the EC50 in the data set on HBV [1] (setting [4]) and in the data set with HBV [2] (setting [5]) were 126 nM and 71 nM, respectively. In data set [3], this compound registered a CC50 at 4 days above 25000 nM.

`C[C@@H](NC(=O)C(=O)N1CCC(C(=O)Nc2cc(F)c(F)c(Cl)c2)C1(C)C)C(F)(F)F` (stereo partly drawn) [Compound 18, N-(3-chloro-4,5-difluoro-phenyl)-2,2-dimethyl-1-[2-oxo-2-[[(1R)-2,2,2-trifluoro-1-methyl-ethyl]amino]acetyl]pyrrolidine-3-carboxamide]: in the data set with HBV [2] (setting [5]), the EC50 was 670 nM. This compound showed a CC50 at 4 days in data set [3] above 25000 nM.

Turning to `CC(C)NC(=O)C(=O)N1CCC(C(=O)Nc2ccc(F)c(C#N)c2)[C@@H]1C` (stereo partly drawn) [Compound 27, (2S)-N-(3-cyano-4-fluoro-phenyl)-1-[2-(isopropylamino)-2-oxo-acetyl]-2-methyl-pyrrolidine-3-carboxamide], the results for the EC50 in the data set with HBV [1] (setting [4]) and in the data set on HBV [2] (setting [5]) were 119 nM and 126 nM, respectively. The compound also came in with a CC50 at 4 days in data set [3] above 25000 nM.

Consider `CC(C)(C)NC(=O)C(=O)N1CC[C@H](C(=O)Nc2cc(F)c(F)c(Br)c2)C1` [Compound 3, (S)-N-(3-bromo-4,5-difluorophenyl)-1-(2-(tert-butylamino)-2-oxoacetyl)-pyrrolidine-3-carboxamide], for which the concentration for a half-maximal effect (EC50) was determined as 141 nM in the data set with HBV [1] (setting [4]) and 26 nM in the data set with HBV [2] (setting [5]). Further, the cytotoxic concentration (CC50) at 4 days in data set [3] was above 25000 nM.

As to `C[C@@H](NC(=O)C(=O)N1CC[C@H](C(=O)Nc2ccc(F)c(Cl)c2)C1)C(F)(F)F` [Compound 15, (S)-N-(3-chloro-4-fluorophenyl)-1-(2-oxo-2-(((R)-1,1,1-trifluoropropan-2-yl)amino)acetyl)pyrrolidine-3-carboxamide], the results for the EC50 in the data set on HBV [1] (setting [4]) and with HBV [2] (setting [5]) were 25 nM and 47 nM, respectively. For the same compound, in data set [3], the CC50 at 4 days was above 25000 nM.

In the data set with HBV [2] (setting [5]), `C[C@H]1[C@@H](C(=O)Nc2cc(F)c(F)c(F)c2)CCN1C(=O)C(=O)N[C@H](C)C(F)(F)F` [Compound 34b, (2S,3S)-2-methyl-1-[2-oxo-2-[[(1R)-2,2,2-trifluoro-1-methyl-ethyl]amino]acetyl]-N-(3,4,5-trifluorophenyl)pyrrolidine-3-carboxamide] had an EC50 of 4 nM. In data set [3], this compound returned a CC50 at 4 days above 25000 nM.

As to `C[C@H]1[C@H](C(=O)Nc2cc(F)c(F)c(F)c2)CCN1C(=O)C(=O)N[C@H](C)C(F)(F)F` [Compound 34a, (2S,3R)-2-methyl-1-[2-oxo-2-[[(1R)-2,2,2-trifluoro-1-methyl-ethyl]amino]acetyl]-N-(3,4,5-trifluorophenyl)pyrrolidine-3-carboxamide], the EC50 with HBV [2] (setting [5]) was above 500 nM. In addition, in data set [3], the CC50 at 4 days is above 25000 nM.

Compound `C[C@H]1[C@@H](C(=O)Nc2cc(F)c(F)c(Cl)c2)CCN1C(=O)C(=O)N[C@H](C)C(F)(F)F` [Compound 33b, (2S,3S)-N-(3-chloro-4,5-difluoro-phenyl)-2-methyl-1-[2-oxo-2-[[(1R)-2,2,2-trifluoro-1-methyl-ethyl]amino]acetyl]pyrrolidine-3-carboxamide] yielded a concentration giving a half-maximal response (EC50) in the data set with HBV [2] (setting [5]) of 5 nM. In data set [3], the CC50 at 4 days is above 25000 nM.

Values taken from patent US10377709B2, “Carboxamide derivatives and the use thereof as medicaments for the treatment of hepatitis B” (Janssen Sciences Ireland UC, priority 2013, dated 2019).
